These results are taken from PubChem BioAssay (NCI).

Among the test systems are 786-0 renal; OVCAR-4 ovarian; BT-549 breast; SK-MEL-28 melanoma; PC-3 prostate; M14 melanoma; K-562 leukemia; SR leukemia; DMS 273 small cell lung; LXFL 529 NSCLC; DLD-1 colon.
What all share (assay): NCI tumour cell line growth inhibition, 48 h

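Tested at 5 concentrations; 48 h exposure; 96-well plates; endpoints linearly interpolated, else capped at highest concentration. GI50: concentration for 50% inhibition of growth. TGI denotes the concentration required for complete inhibition of growth.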

Take `N/C(CSCCSC/C(N)=N/O)=N\O`: the TGI in the experiment with 786-0 renal, with OVCAR-4 ovarian, in the experiment with BT-549 breast, with SK-MEL-28 melanoma, in the experiment on PC-3 prostate and in the experiment with M14 melanoma was greater than 100 µM throughout. Besides, the TGI in the experiment with K-562 leukemia and in the experiment with SR leukemia was greater than 100 µM in each case.

For the compound `CC(C)(C)c1ccc2c(c1)OCc1n[nH]c(n1)COc1cc(C(C)(C)C)ccc1OCCOCCO2`, the TGI was found to be 16 µM in the experiment with 786-0 renal; 7.45 µM with OVCAR-4 ovarian; 10.9 µM in the experiment on BT-549 breast; 9.52 µM in the experiment with SK-MEL-28 melanoma; 7.59 µM with PC-3 prostate; 13.5 µM in the experiment on M14 melanoma. The TGI with K-562 leukemia is greater than 100 µM; in the experiment with SR leukemia it was 13 µM.

Regarding `O=S1(=O)c2ccccc2NC(=S)N1c1ccccc1`, the TGI with 786-0 renal was greater than 100 µM; in the experiment with OVCAR-4 ovarian, greater than 100 µM; in the experiment with BT-549 breast, 99.2 µM; in the experiment on SK-MEL-28 melanoma, greater than 100 µM; with PC-3 prostate it was greater than 100 µM; in the experiment on M14 melanoma, greater than 100 µM. Further, the TGI in the experiment on K-562 leukemia and with SR leukemia was greater than 100 µM in each case.

As for `Cc1ccc2c(c1)C(=O)/C(=C\c1ccc(Cl)cc1)CCS2(=O)=O`, the TGI with 786-0 renal was 3.49 µM; in the experiment on OVCAR-4 ovarian, 6.93 µM; with BT-549 breast, 12.7 µM; in the experiment on SK-MEL-28 melanoma it was 13.5 µM; in the experiment on PC-3 prostate it was 39.1 µM; in the experiment with M14 melanoma, greater than 34.4 µM. Moreover, the TGI with K-562 leukemia was 3.32 µM; in the experiment with SR leukemia it was 5.55 µM.

Consider `CCOC(=O)Cc1nn2c(=O)cc(C)nc2s1`, for which the TGI with 786-0 renal, in the experiment with OVCAR-4 ovarian, in the experiment with BT-549 breast, in the experiment on SK-MEL-28 melanoma, in the experiment with PC-3 prostate and in the experiment with M14 melanoma was greater than 100 µM each time. Besides, the TGI in the experiment on K-562 leukemia and with SR leukemia was greater than 100 µM each time.

`NNC(=O)c1cccc2c1Oc1ccccc1S2`: the TGI in the experiment on 786-0 renal, in the experiment on OVCAR-4 ovarian, in the experiment with BT-549 breast, in the experiment with SK-MEL-28 melanoma, with PC-3 prostate and in the experiment with M14 melanoma was greater than 100 µM each time. Moreover, the TGI in the experiment with K-562 leukemia and in the experiment with SR leukemia was greater than 100 µM each time.

In the case of `COc1cc(/C=C/c2cc(=O)cc(/C=C/c3ccc(O)c(OC)c3)o2)ccc1O`, the TGI in the experiment on 786-0 renal, in the experiment with OVCAR-4 ovarian, in the experiment with BT-549 breast, with SK-MEL-28 melanoma, with PC-3 prostate and in the experiment with M14 melanoma was greater than 100 µM in each case. In addition, the TGI with K-562 leukemia and in the experiment with SR leukemia was greater than 100 µM in each case.

As for `COc1ccc(N2C(=O)C3c4[nH]c5ccccc5c4C4C(C)CCCC4C3C2=O)cc1` (stereo not drawn), the TGI is greater than 63.5 µM in the experiment on 786-0 renal; greater than 100 µM in the experiment with OVCAR-4 ovarian; greater than 33.6 µM in the experiment on BT-549 breast; greater than 100 µM in the experiment on SK-MEL-28 melanoma; greater than 100 µM in the experiment on PC-3 prostate; greater than 100 µM with M14 melanoma. Further, the values for the TGI in the experiment on K-562 leukemia and in the experiment on SR leukemia were greater than 100 µM and greater than 46.8 µM, respectively.

In the case of `COC(=O)[C@H]1C=C[C@H](OC2OC(COC(C)=O)C(OC(C)=O)C(OC(C)=O)C2OC(C)=O)n2c(=O)n(-c3ccccc3)c(=O)n21` (stereo partly drawn), the TGI in the experiment with 786-0 renal was determined as 14.7 µM; in the experiment with OVCAR-4 ovarian, 32.9 µM; in the experiment with BT-549 breast, 9.14 µM; in the experiment with SK-MEL-28 melanoma, 8.63 µM; in the experiment with PC-3 prostate, 22.6 µM; in the experiment with M14 melanoma, 9.64 µM. Further, the TGI is 4.91 µM with K-562 leukemia and 8.33 µM in the experiment with SR leukemia. Moreover, the GI50 with OVCAR-4 ovarian was 4.14 µM.

As for `O=CN(O)CC(=O)O`, the TGI in the experiment with 786-0 renal, in the experiment on OVCAR-4 ovarian, with BT-549 breast, in the experiment on SK-MEL-28 melanoma, with PC-3 prostate and in the experiment with M14 melanoma was greater than 100 µM throughout. The TGI in the experiment on K-562 leukemia and in the experiment with SR leukemia was greater than 100 µM in each case.

For `O=C(/C=C1\C[C@H]2C=Nc3ccccc3C(=O)N2C1)NCCCCCNC(=O)/C=C1\C[C@H]2C=Nc3ccccc3C(=O)N2C1`, the TGI turned out to be 3.42 µM in the experiment with 786-0 renal; 26.4 µM in the experiment with OVCAR-4 ovarian; 26 µM in the experiment with BT-549 breast; 27.4 µM with SK-MEL-28 melanoma; 27.1 µM with PC-3 prostate; 12.1 µM with M14 melanoma. Moreover, the TGI in the experiment with K-562 leukemia was greater than 51.9 µM; in the experiment with SR leukemia, 12.4 µM.

For `CCOC(=O)c1ccc(C(=O)/C(C(=O)OC(C)(C)C)=C2\CCCN2C)n1C`, the TGI in the experiment with 786-0 renal, with OVCAR-4 ovarian, in the experiment with BT-549 breast, in the experiment with SK-MEL-28 melanoma, in the experiment with PC-3 prostate and in the experiment on M14 melanoma was greater than 100 µM each time. The TGI with K-562 leukemia and in the experiment on SR leukemia was greater than 100 µM each time.

As to `OCC1OC(O[C@H]2CN3[C@H](O)[C@@H](O)[C@H](O)[C@H]3C2O)C(O)C(O)C1O` (stereo partly drawn), the TGI in the experiment with 786-0 renal, with OVCAR-4 ovarian, in the experiment with BT-549 breast, in the experiment on SK-MEL-28 melanoma, in the experiment on PC-3 prostate and in the experiment with M14 melanoma was greater than 100 µM throughout. For the same compound, the TGI in the experiment on K-562 leukemia and in the experiment with SR leukemia was greater than 100 µM throughout.

For `NC(=O)NC(=NCc1ccccc1)NCc1ccccc1`, the TGI in the experiment on 786-0 renal, with DMS 273 small cell lung, in the experiment on OVCAR-4 ovarian, in the experiment with SK-MEL-28 melanoma, in the experiment on M14 melanoma and in the experiment on LXFL 529 NSCLC was greater than 100 µM throughout. The TGI in the experiment on DLD-1 colon was greater than 100 µM.

Take `CC(O)(C(=O)N(O)c1ccc(Cl)cc1)c1ccc(Cl)cc1` (stereo not drawn): the TGI was greater than 100 µM in the experiment with 786-0 renal; greater than 100 µM in the experiment with OVCAR-4 ovarian; 61.5 µM in the experiment on BT-549 breast; greater than 100 µM with SK-MEL-28 melanoma; 73 µM in the experiment on PC-3 prostate; greater than 100 µM with M14 melanoma. Moreover, the TGI was 43.1 µM in the experiment on K-562 leukemia and 36.1 µM with SR leukemia.

Consider `COC(=O)C1=C(C)N2[C@H](C(=O)O)CS[C@@]2(C)[C@H](C(=O)OC)[C@H]1c1cccc([N+](=O)[O-])c1`, for which the TGI in the experiment with 786-0 renal, in the experiment with OVCAR-4 ovarian, in the experiment on BT-549 breast, in the experiment on SK-MEL-28 melanoma, in the experiment on PC-3 prostate and with M14 melanoma was greater than 100 µM throughout. Moreover, the TGI in the experiment with K-562 leukemia and with SR leukemia was greater than 100 µM in each case.
